Converted amounts (≈) assume the structure as drawn. Bounds are passed on as bounds.

What is called solubility is the concentration that dissolves in the medium under given conditions. The low end stands for little dissolved substance, the high end for much dissolved substance.

One data set deals with T1, PI3K gamma (Mus musculus, UniProt Q9JHG7).
T1 construct: endogenous in cells; host or cells: RAW264.7
Briefly: Raw264.7 cell assay: phosphorylation of AKT in C5a stimulated RAW264.7 cells (AlphaLISA). It counts as cell-based. The following applies: pAKT, read-out: PI3K gamma Raw264.7 cell (nM) cellular activity (IC50). The method, then:
(§1) This study aims to determine the inhibitory effect of compounds on PI3K gamma and PI3K delta in corresponding cell based assays. PI3K gamma activity was reflected by phosphorylation of AKT in C5a stimulated RAW264.7 cells, and PI3K delta activity was reflected by phosphorylation of AKT in anti-IgM stimulated Raji cells. Phosphorylation of AKT in cells was determined using AlphaLISA technology from PerkinElmer.
Raw264.7 cell assay: Prepare Passage 15 Raw264.7 cell and add 6 μL of 30K cells per well in 384-well plate by multidrop. Centrifuge at 500 RPM for 30 s and incubate for 2 hours at 37° C., 5% CO2. Add 30 nL compound by echo and incubate for 30 min at 37° C., 5% CO2. […] Add 2 μL of 5× lysis buffer by multidrop, incubate for 10 min on a plate shaker. Add 5 μL acceptor mix provided in the kit, centrifuge at 1000 RPM for 1 min. Add 5 μL donor mix provided in the kit, centrifuge at 1000 RPM for 1 min and incubate in dark for 2 hours at 25° C. Read AlphaLISA signal on Envision.
Y=Bottom+(Top−Bottom)/(1+10^((Log IC50−X)*Hill Slope)) X: Log of cpd concentration Y: Inhibition
In general terms: In Alpha technology, singlet oxygen from a donor bead excites a nearby acceptor bead.

The target of a further data set is PI3Kβ (Homo sapiens, UniProt P42338). Briefly: ADP-Glo luminescent assay, enzymatic activity of PI3K beta. It counts as biochemical. Conditions: ATP 25 μM; read-out: PI3K beta (nM) inhibitory activity (IC50). As for the experimental part:
(§2) Enzymatic activity of PI3K isoforms: Enzymatic activity of the class I PI3K isoforms in the presence of the compounds of Table 1 was measured using ADP-Glo luminescent assay against PI3Kα, PI3Kβ, PI3Kδ and PI3Kγ with ATP concentration at 25 μM. IPI-549 was used as the reference compound. The compounds would be tested from 1 or 10 μM, 3-fold dilution for 10 doses, in duplicate.
(§3) Compound preparation: Dilute a compound to 100× of the final desired highest inhibitor concentration in reaction by 100% DMSO. Transfer 100 μl of this compound dilution to a well in a 96-well plate and serially dilute it with DMSO for a total of 10 concentrations.
(§4) Kinase reaction: Prepare a solution of PI3K in 1× kinase buffer at 2-fold the final concentration of each reagent in the assay. Control wells contain 1× kinase buffer without enzyme. Prepare substrate solution of PIP2 substrate and ATP in 1× kinase reaction buffer at 2-fold of the final concentration. Add concentration substrate solution to each well to the final concentration. Cover the assay plate, shake to mix, and incubate at room temperature for 1 hour. Add 5 μl of ADP-Glo reagent to each well to stop the reaction. Mix briefly with a quick spin, shake slowly on the shaker for 120 min. Add 10 ul Kinase Detection Reagent to each well, shake 1 min, equilibrate for 30 min before reading on a luminescence plate reader.
(§5) Data Analysis: Convert RLU values to percent inhibition values as Percent inhibition=(max−sample RLU)/(max−min)*100. “min”—no enzyme control; “max”—DMSO control. Fit the data in XLFit excel add-in version 5.4.0.8 to obtain IC50 values. Y=Bottom+(Top−Bottom)/(1+(IC50/X)^HillSlope).

In a further data set the target is PI3Kδ (Homo sapiens, UniProt O00329). Briefly: ADP-Glo luminescent assay, enzymatic activity of PI3K delta. The following applies: ATP 25 μM; read-out: PI3K delta (nM) inhibitory activity (IC50). Format: biochemical. The method, then:
Enzymatic activity of PI3K isoforms: Enzymatic activity of the class I PI3K isoforms in the presence of the compounds of Table 1 was measured using ADP-Glo luminescent assay against PI3Kα, PI3Kβ, PI3Kδ and PI3Kγ with ATP concentration at 25 μM. […] The compounds would be tested from 1 or 10 μM, 3-fold dilution for 10 doses, in duplicate.
as §3, §4, §5

Data set [1] can be described thus: Kinetic solubility test in PBS pH7.4. Format: physicochemical. The following applies: aqueous buffer, kinetic from dmso stock; PBS pH 7.4, 25° C., 2 hours. As for the experimental part: 15 μL of stock solution (10 mM) was placed in order into their proper 96-well rack. 485 μL of PBS pH7.4 was added into each vial of the cap-less Solubility Sample plate. The assay was performed in singlet. Add one stir stick to each vial and seal using a molded PTFE/Silicone plug. […] After completion of the 2 hours, the samples from the Solubility Sample plate were transferred into the filter plate. all the samples were filtered using the Vacuum Manifold. Aliquot of 5 μL was taken from the filtrate followed by addition of 495 μL of a mixture of H2O and acetonitrile containing internal standard (1:1). A certain proportion of ultrapure water was used to dilute the diluent according to the peak shape. The dilution factor was changed according to the solubility values and the LC-MS signal response.
Preparation of 3 μM standards (STD): From the 10 mM DMSO STD plate, 6 μL was transferred into the remaining empty plate, and then 194 μL of DMSO was added to that plate to have a STD concentration of 300 μM. From the 300 μM DMSO STD plate, 5 μL was transferred into the remaining empty plate, and then 495 μL of a mixture of H2O and acetonitrile containing internal standard (1:1) was added to that plate to have a final STD concentration of 3 μM. A certain proportion of ultrapure water was used to dilute the diluent according to the peak shape. The concentrations of the standard samples were changed according to the LC-MS signal response.
Procedure for sample analysis: The plate was placed into the well plate autosampler. The samples were evaluated by LC-MS/MS analysis.
Data analysis: All calculations were carried out using Microsoft Excel.
The filtrate was analyzed and quantified against a standard of known concentration using LC coupled with mass spectral peak identification and quantitation. Solubility values of the test compound and control compound were calculated as follows:
[formula] • Any value of the compounds that was not within the specified limits was rejected and the experiment was repeated.

A further data set addresses PI3Kα (Homo sapiens, UniProt P42336). Briefly: ADP-Glo luminescent assay, enzymatic activity of PI3K alpha. It counts as biochemical. The following applies: ATP 25 μM; read-out: PI3K alpha (nM) inhibitory activity (IC50). The method, then: as §2, §3, §4, §5
The next data set addresses PI3Kγ (Homo sapiens, UniProt P48736). Briefly: ADP-Glo luminescent assay, enzymatic activity of PI3K gamma. Format: biochemical. Conditions: ATP 25 μM; read-out: PI3K gamma (nM) inhibitory activity (IC50). The method, then:
The compounds would be tested from 1 or 10 μM, 3-fold dilution for 10 doses, in duplicate.
as §3
as §4, with “Mix briefly with a quick spin, shake slowly on the shaker for 120 min.” left out
as §5
(In general: ADP-Glo turns the ADP formed in a reaction into a luminescent signal.)

The next data set concerns the target T2, PI3K delta (Homo sapiens, UniProt O00329).
T2 construct: endogenous in cells; host or cells: Raji
Briefly: Raji cell assay: phosphorylation of AKT in anti-IgM stimulated Raji cells (AlphaLISA). It counts as cell-based. The following applies: pAKT, read-out: PI3K delta Raji cell (nM) cellular activity (IC50). As for the experimental part: as §1
Raji cell assay: Prepare Passage 11 Raji cell and add 6 μL of 60K cells per well in 384-well plate. Centrifuge at 500 RPM for 30 s and incubate for 2 hours at 37° C., 5% CO2. Add 30 nL compound by Echo and incubate for 30 min at 37° C. Add 2 μL of IgM (4×, 12 μg/mL) per well, centrifuge at 500 RPM for 30 s and incubate for 10 min at 37° C. Add 2 μL of 5× lysis buffer by Multidrop. Shake 10 min on a plate shaker. Add 5 μL acceptor mix provided in the kit. Centrifuge at 1000 RPM for 1 min. Add 5 μL donor mix provided in the kit. Centrifuge at 1000 RPM for 1 min. Then incubate for 2 hours at 25° C., keep the plate in dark. Read AlphaLISA signal on Envision.
Data analysis: Fit the cpd IC50 from non-linear regression equation. Y=Bottom+(Top−Bottom)/(1+10^((Log IC50−X)*Hill Slope)) X: Log of cpd concentration Y: Inhibition

Sequence of PI3Kδ (O00329 whole entry, species assumed, canonical isoform): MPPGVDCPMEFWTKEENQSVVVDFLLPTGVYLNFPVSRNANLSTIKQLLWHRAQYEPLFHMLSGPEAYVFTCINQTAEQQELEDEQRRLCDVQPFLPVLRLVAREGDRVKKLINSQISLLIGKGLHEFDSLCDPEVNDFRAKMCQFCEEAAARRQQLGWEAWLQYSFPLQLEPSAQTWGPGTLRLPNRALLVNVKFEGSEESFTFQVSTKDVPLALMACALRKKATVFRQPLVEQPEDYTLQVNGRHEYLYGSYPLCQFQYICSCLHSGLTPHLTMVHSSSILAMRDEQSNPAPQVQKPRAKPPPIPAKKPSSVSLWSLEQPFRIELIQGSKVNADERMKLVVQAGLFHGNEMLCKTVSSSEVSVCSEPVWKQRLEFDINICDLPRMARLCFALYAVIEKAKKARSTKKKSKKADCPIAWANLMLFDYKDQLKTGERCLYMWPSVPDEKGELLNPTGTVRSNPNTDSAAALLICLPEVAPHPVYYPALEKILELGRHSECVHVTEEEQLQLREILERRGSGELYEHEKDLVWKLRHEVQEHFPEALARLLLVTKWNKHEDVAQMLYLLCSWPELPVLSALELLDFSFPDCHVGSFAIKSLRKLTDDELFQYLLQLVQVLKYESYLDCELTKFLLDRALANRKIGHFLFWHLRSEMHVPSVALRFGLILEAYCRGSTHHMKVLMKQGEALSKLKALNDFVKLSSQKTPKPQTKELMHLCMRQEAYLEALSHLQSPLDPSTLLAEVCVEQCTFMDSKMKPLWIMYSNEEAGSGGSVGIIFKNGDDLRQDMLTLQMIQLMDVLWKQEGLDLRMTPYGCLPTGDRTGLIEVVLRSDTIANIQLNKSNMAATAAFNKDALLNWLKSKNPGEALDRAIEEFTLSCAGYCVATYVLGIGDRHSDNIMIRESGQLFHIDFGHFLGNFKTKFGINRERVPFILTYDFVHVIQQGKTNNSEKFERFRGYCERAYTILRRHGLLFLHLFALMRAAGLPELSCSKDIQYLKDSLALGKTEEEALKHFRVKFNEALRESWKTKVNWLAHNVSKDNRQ
Sequence of PI3Kδ (P27986 whole entry partner, species assumed, canonical isoform): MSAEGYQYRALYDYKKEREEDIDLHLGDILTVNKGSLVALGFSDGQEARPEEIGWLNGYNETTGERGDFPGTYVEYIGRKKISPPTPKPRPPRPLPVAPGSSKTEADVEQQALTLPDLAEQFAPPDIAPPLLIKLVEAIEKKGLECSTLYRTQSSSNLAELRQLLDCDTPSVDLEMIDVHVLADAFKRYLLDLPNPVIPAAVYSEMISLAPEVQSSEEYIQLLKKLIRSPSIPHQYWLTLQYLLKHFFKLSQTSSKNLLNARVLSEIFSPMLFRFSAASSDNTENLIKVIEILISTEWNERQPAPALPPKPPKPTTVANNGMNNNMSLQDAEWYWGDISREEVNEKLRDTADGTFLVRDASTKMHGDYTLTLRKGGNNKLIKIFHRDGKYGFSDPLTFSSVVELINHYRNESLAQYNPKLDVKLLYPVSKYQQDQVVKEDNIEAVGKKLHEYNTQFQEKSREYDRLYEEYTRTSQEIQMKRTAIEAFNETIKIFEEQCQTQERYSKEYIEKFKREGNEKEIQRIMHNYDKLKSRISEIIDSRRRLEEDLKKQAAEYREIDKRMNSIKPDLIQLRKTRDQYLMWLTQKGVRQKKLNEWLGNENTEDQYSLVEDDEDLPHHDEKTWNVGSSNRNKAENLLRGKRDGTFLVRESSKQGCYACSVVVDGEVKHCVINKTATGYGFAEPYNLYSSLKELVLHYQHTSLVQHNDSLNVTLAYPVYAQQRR
T2 sequence (O00329 whole entry): as the sequence (O00329 whole entry, species assumed, canonical isoform) above
T2 sequence (P27986 whole entry partner): as the sequence (P27986 whole entry partner, species assumed, canonical isoform) above
T1 sequence (Q9JHG7 whole entry): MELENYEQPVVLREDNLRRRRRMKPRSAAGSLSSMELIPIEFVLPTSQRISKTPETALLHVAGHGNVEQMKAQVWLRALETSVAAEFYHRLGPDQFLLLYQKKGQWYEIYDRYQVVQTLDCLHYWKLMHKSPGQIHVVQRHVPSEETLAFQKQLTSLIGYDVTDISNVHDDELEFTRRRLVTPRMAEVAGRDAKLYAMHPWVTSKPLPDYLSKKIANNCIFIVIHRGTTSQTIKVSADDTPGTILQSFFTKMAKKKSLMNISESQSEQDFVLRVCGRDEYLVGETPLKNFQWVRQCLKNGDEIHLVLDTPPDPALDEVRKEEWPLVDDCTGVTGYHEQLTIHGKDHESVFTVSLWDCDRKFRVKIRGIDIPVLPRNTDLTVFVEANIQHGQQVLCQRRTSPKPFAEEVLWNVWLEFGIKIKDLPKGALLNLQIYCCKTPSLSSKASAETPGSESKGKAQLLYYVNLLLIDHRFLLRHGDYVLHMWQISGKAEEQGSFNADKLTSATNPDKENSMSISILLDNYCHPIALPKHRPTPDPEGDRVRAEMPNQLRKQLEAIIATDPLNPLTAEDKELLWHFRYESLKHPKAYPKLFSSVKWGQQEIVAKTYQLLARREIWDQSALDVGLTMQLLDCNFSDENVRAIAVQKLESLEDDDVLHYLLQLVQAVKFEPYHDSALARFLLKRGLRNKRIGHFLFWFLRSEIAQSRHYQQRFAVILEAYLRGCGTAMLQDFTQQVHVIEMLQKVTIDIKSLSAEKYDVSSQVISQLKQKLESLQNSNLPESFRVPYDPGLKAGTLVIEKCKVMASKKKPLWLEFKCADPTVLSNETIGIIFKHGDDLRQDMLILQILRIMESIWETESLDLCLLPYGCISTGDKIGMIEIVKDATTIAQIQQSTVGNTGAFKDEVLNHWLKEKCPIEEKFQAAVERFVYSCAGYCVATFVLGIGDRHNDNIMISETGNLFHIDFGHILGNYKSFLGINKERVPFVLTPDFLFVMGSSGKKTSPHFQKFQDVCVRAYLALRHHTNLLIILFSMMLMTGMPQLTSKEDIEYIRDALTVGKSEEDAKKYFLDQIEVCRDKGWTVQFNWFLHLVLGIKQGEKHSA
T1 sequence (Q5SW28 whole entry partner): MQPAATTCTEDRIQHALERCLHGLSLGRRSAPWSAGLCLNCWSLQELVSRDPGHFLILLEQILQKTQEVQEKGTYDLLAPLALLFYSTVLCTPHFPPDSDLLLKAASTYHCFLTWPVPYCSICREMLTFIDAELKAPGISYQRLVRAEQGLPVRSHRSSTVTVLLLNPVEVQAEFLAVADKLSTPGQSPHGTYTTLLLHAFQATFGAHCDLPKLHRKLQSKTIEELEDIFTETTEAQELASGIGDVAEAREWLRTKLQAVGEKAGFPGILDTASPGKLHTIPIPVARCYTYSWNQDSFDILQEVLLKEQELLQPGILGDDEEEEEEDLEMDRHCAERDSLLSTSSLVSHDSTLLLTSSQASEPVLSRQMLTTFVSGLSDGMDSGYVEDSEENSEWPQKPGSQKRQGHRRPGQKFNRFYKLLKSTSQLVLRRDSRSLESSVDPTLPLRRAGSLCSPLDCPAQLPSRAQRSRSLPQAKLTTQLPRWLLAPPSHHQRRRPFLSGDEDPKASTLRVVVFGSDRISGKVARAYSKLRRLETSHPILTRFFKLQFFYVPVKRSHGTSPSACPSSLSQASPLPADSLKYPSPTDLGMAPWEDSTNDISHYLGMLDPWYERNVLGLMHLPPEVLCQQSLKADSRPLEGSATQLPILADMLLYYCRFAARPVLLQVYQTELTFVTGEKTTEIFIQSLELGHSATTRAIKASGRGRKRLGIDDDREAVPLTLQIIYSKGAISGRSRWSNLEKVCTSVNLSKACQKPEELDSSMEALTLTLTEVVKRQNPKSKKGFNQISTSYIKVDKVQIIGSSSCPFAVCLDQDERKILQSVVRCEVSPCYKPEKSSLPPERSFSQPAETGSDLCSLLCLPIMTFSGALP
Sequence of PI3Kγ (P48736 whole entry, species assumed): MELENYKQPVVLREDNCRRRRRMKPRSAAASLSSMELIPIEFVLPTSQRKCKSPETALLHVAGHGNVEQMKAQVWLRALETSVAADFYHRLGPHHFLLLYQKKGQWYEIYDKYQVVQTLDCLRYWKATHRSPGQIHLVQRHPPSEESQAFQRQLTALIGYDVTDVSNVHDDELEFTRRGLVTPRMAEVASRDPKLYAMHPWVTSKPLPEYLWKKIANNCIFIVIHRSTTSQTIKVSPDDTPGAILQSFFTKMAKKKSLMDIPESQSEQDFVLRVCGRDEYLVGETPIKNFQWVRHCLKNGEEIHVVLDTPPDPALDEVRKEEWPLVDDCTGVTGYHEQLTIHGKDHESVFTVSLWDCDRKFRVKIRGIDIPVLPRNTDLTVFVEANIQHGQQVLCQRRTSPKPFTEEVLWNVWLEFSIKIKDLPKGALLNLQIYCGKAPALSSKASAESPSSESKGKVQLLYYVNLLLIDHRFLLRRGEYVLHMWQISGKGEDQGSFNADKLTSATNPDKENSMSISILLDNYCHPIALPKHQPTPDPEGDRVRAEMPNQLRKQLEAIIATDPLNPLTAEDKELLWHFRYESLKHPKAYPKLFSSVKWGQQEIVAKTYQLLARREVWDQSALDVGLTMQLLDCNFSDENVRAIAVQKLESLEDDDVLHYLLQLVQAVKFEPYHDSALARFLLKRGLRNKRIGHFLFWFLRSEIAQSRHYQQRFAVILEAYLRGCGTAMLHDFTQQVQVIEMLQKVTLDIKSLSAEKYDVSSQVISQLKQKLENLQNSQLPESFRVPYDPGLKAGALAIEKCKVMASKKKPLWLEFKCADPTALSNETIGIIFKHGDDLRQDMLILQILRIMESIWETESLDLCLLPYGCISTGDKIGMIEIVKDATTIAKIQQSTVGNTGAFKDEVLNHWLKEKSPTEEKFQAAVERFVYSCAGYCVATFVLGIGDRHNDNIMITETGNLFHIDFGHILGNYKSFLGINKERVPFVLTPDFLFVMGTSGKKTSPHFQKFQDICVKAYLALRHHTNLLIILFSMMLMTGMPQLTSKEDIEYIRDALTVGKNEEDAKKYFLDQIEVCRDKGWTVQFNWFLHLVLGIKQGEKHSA

With `CC(=O)Nc1nc(C)c(-c2cc3c(c(N4CCOCC4)n2)C(=O)N([C@H](C)C2CC2)C3)s1` [Compound 35, (R)-N-(5-(2-(1-cyclopropylethyl)-4-morpholino-3-oxo-2,3-dihydro-1H-pyrrolo[3,4-c]pyridin-6-yl)-4-methylthiazol-2-yl)acetamide], the IC50 on PI3K gamma was 3.2 nM; at PI3Kβ it was above 10000 nM; at PI3Kδ, 1330 nM; at PI3Kα, 4140 nM. Besides, the solubility at 2 h in data set [1] is 23 µM (≈ 10.2 µg/mL).
Turning to `CC(=O)Nc1nc(C)c(-c2cc3c(c(N4CCOCC4)n2)C(=O)N(C(C)C(F)(F)F)C3)s1` (stereo in doubt) [Compound 36, (R)-N-(4-methyl-5-(4-morpholino-3-oxo-2-(1,1,1-trifluoropropan-2-yl)-2,3-dihydro-1H-pyrrolo[3,4-c]pyridin-6-yl)thiazol-2-yl)acetamide], the IC50 at PI3K gamma was 3.3 nM; at PI3Kδ it was 1250 nM; at PI3Kγ, 2.4 nM. For the same molecule, in data set [1], the solubility at 2 h turned out to be 32 µM (≈ 15 µg/mL).
With `COc1nc(-c2sc(NC(C)=O)nc2C)cc2c1C(=O)N([C@@H](C)C1CC1)C2` [Compound 22, (S)-N-(5-(2-(1-cyclopropylethyl)-4-methoxy-3-oxo-2,3-dihydro-1H-pyrrolo[3,4-c]pyridin-6-yl)-4-methylthiazol-2-yl)acetamide], the IC50 at PI3K gamma was 2.5 nM; at PI3K delta, 2280 nM; on PI3Kδ, above 1000 nM; on PI3Kγ it was 1.7 nM. In data set [1], this molecule came in with a solubility at 2 h of 3.5 µM (≈ 1.35 µg/mL).
As to `CC(=O)Nc1nc(C)c(-c2cc3c(c([S@](C)(=N)=O)c2)C(=O)N([C@@H](C)C2CC2)C3)s1` (racemic) [Compound 15, N-(5-(2-((S)-1-cyclopropylethyl)-7-(S-methylsulfonimidoyl)-1-oxoisoindolin-5-yl)-4-methylthiazol-2-yl)acetamide], the IC50 at PI3K gamma was 130 nM; at PI3Kδ it was 784 nM; at PI3Kγ it was 1.9 nM. For the same molecule, in data set [1], the solubility at 2 h came out at 245 µM (≈ 106 µg/mL).
As to `CC(=O)Nc1nc(C)c(-c2cc3c(c(NS(=O)(=O)C4CC4)n2)C(=O)N([C@@H](C)C2CC2)C3)s1` [Compound 24, (S)-N-(5-(4-(cyclopropanesulfonamido)-2-(1-cyclopropylethyl)-3-oxo-2,3-dihydro-1H-pyrrolo[3,4-c]pyridin-6-yl)-4-methylthiazol-2-yl)acetamide], the IC50 at PI3K gamma is 2.2 nM; on PI3K delta, 1420 nM; on PI3Kδ, 794 nM; at PI3Kγ it was 1.5 nM. Besides, the solubility at 2 h in data set [1] worked out at 83 µM (≈ 39.5 µg/mL).
Take `CC(=O)Nc1nc(C)c(-c2cc3c(c(NC(C)=O)n2)C(=O)N([C@@H](C)C2CC2)C3)s1` [Compound 44, (S)-N-(5-(4-acetamido-2-(1-cyclopropylethyl)-3-oxo-2,3-dihydro-M-pyrrolo[3,4-c]pyridin-6-yl)-4-methylthiazol-2-yl)acetamide]: the figures for the IC50 at PI3K gamma, at PI3Kδ and at PI3Kγ were 5.1 nM, above 1000 nM and 0.87 nM, respectively. For the same molecule, the concentration in solution in data set [1] (solubility at 2 h) was 1.2 µM (≈ 0.496 µg/mL).
For the molecule `CC(=O)Nc1nc(C)c(-c2cnc3c(c2)CN([C@@H](C)C2CC2)C3=O)s1` [Compound 8, (S)-N-(5-(6-(1-cyclopropylethyl)-7-oxo-6,7-dihydro-5H-pyrrolo[3,4-b]pyridin-3-yl)-4-methylthiazol-2-yl)acetamide], the IC50 was 115 nM on PI3K gamma, 361 nM on PI3Kδ and 34 nM at PI3Kγ.
Turning to `CC(=O)Nc1nc(C)c(-c2cc3c(c([S@@+](C)[O-])c2)C(=O)N([C@@H](C)C2CC2)C3)s1` (racemic) [Compound 12, N-(5-(2-((S)-1-cyclopropylethyl)-7-(methylsulfinyl)-1-oxoisoindolin-5-yl)-4-methylthiazol-2-yl)acetamide], the IC50 is 30 nM at PI3K gamma, 2080 nM on PI3Kδ and 1.7 nM at PI3Kγ. The concentration in solution in data set [1] (solubility at 2 h) was 211 µM (≈ 88.1 µg/mL).
Regarding `CC(=O)Nc1nc(C)c(-c2cc3c(c(P(C)(C)=O)c2)C(=O)N([C@@H](C)C2CC2)C3)s1` [Compound 1, (S)-N-(5-(2-(1-cyclopropylethyl)-7-(dimethylphosphoryl)-1-oxoisoindolin-5-yl)-4-methylthiazol-2-yl)acetamide], the IC50 at PI3K gamma was 315 nM; at PI3K delta, above 1000 nM; on PI3Kδ it was above 1000 nM; on PI3Kγ, 1.4 nM.
